Reference: patent US20230087118A1, “IMIDAZO[1,2-a][sequence] DERIVATIVES AND THEIR USE IN THE TREATMENT OF DISEASE” (priority 2019, published 2023)
Where two headings read alike, the source gives them in different places.

Target: T1, IRAK4 (Homo sapiens, UniProt Q9NWZ3)
T1 sequence (Q9NWZ3 1-460): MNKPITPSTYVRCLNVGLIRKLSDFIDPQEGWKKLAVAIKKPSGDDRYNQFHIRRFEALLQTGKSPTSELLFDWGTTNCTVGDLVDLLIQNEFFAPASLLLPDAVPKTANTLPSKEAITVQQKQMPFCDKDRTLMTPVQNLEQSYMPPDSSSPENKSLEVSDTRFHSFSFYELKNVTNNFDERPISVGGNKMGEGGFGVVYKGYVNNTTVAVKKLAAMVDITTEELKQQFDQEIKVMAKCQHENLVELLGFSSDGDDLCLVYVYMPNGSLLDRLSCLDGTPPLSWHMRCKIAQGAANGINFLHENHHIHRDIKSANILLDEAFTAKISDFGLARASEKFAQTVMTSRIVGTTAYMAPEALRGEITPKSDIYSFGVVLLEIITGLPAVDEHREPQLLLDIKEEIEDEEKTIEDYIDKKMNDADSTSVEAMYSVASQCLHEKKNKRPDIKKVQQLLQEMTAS
Assay: biochemical

[1] = IRAK4 Biochemical Assay (1 mM ATP, 2 h) IC50 (μM), 1 mM ATP, 2 h, 100 pM IRAK4

Row | IC50 [µM] | IC50 [1] [µM] | Structure (SMILES)
1 | 0.0015 |  | CC12CC(c3cn4cc(C(=O)Nc5cccn(C(F)F)c5=O)c(OCCF)cc4n3)(CO1)C2 [Example 438, N-(1-(difluoromethyl)-2-oxo-1,2-dihydropyridin-3-yl)-7-(2-fluoroethoxy)-2-(1-methyl-2-oxabicyclo[2.1.1]hexan-4-yl)imidazo[1,2-a]pyridine-6-carboxamide]
2 | 0.0034 |  | CC12CC(c3cn4cc(C(=O)Nc5cccn(C(F)F)c5=O)c(OC5COC5)cc4n3)(CO1)C2 [Example 441, N-(1-(difluoromethyl)-2-oxo-1,2-dihydropyridin-3-yl)-2-(1-methyl-2-oxabicyclo[2.1.1]hexan-4-yl)-7-(oxetan-3-yloxy)imidazo[1,2-a]pyridine-6-carboxamide]
3 | 0.0017 |  | CC12CC(c3cn4cc(C(=O)Nc5cccn(C(F)F)c5=O)c(OC5CCOC5)cc4n3)(CO1)C2 (stereo not shown) [Example 443, N-(1-(difluoromethyl)-2-oxo-1,2-dihydropyridin-3-yl)-2-(1-methyl-2-oxabicyclo[2.1.1]hexan-4-yl)-7-((tetrahydrofuran-3-yl)oxy)imidazo[1,2-a]pyridine-6-carboxamide]
4 |  | 0.0042 | CC1(COc2cc3nc(C45COC(C)(C4)C5)cn3cc2C(=O)Nc2cccn(C(F)F)c2=O)CCOC1 (stereo not shown) [Example 444, N-(1-(difluoromethyl)-2-oxo-1,2-dihydropyridin-3-yl)-2-(1-methyl-2-oxabicyclo[2.1.1]hexan-4-yl)-7-((3-methyltetrahydrofuran-3-yl)methoxy)imidazo[1,2-a]pyridine-6-carboxamide]
5 | 0.0046 |  | CC12CC(c3cn4cc(C(=O)Nc5cccn(C(F)F)c5=O)c(OCCOC(F)F)cc4n3)(CO1)C2 [Example 446, 7-(2-(Difluoromethoxy)ethoxy)-N-(1-(difluoromethyl)-2-oxo-1,2-dihydropyridin-3-yl)-2-(1-methyl-2-oxabicyclo[2.1.1]hexan-4-yl)imidazo[1,2-a]pyridine-6-carboxamide]
6 |  | 0.0014 | CC1(C)CC(Oc2cc3nc(C45COC(C)(C4)C5)cn3cc2C(=O)Nc2cccn(C(F)F)c2=O)CO1 (stereo not shown) [Example 447, N-(1-(difluoromethyl)-2-oxo-1,2-dihydropyridin-3-yl)-7-((5,5-dimethyltetrahydrofuran-3-yl)oxy)-2-(1-methyl-2-oxabicyclo[2.1.1]hexan-4-yl)imidazo[1,2-a]pyridine-6-carboxamide]
7 |  | 0.0013 | CC12CC(c3cn4cc(C(=O)Nc5cccn(C(F)F)c5=O)c(OCC5CC(F)(F)C5)cc4n3)(CO1)C2 [Example 448, 7-((3,3-Difluorocyclobutyl)methoxy)-N-(1-(difluoromethyl)-2-oxo-1,2-dihydropyridin-3-yl)-2-(1-methyl-2-oxabicyclo[2.1.1]hexan-4-yl)imidazo[1,2-a]pyridine-6-carboxamide]
8 | 0.0015 |  | Cn1ccc(NC(=O)c2cn3cc(C45COC(C)(C4)C5)nc3cc2OC2CCCC2)n1 [Example 449, 7-(Cyclopentyloxy)-N-(1-methyl-1H-pyrazol-3-yl)-2-(1-methyl-2-oxabicyclo[2.1.1]hexan-4-yl)imidazo[1,2-a]pyridine-6-carboxamide]

Further lines, the compound ahead of its results:

Row | Structure (SMILES) | IC50 [µM] | IC50 [1] [µM]
9 | CC(C)Oc1nc2nc(C34COC(C3)C4)cn2cc1C(=O)Nc1cnn2cccnc12 [Example 430, 2-(2-Oxabicyclo[2.1.1]hexan-4-yl)-7-isopropoxy-N-(pyrazolo[1,5-a]pyrimidin-3-yl)imidazo[1,2-a]pyrimidine-6-carboxamide] | 0.0027 | 
10 | CC(C)Oc1nc2nc(C34CCC(C)(CC3)OC4)cn2cc1C(=O)Nc1cnn2cccnc12 [Example 431] | 0.0008 | 
11 | Cc1cnc2c(NC(=O)c3cn4cc(C56COC(C5)C6)nc4nc3OC(C)C)cnn2c1 [Example 432] | 0.0006 | 
12 | Cc1cnc2c(NC(=O)c3cn4cc(C56CCC(C5)OC6)nc4nc3OC(C)C)cnn2c1 (stereo not shown) [Example 433] | 0.0006 | 
13 | Cc1cnc2c(NC(=O)c3cn4cc(C56COC(CF)(C5)C6)nc4nc3OC(C)C)cnn2c1 [Example 434] | 0.0005 | 
14 | COc1cccc(NC(=O)c2cn3cc(C4CCOCC4)nc3cc2OCCC2CCOC2)n1 (stereo not shown) [Example 435, N-(6-methoxypyridin-2-yl)-2-(tetrahydro-2H-pyran-4-yl)-7-(2-(tetrahydrofuran-3-yl)ethoxy)imidazo[1,2-a]pyridine-6-carboxamide] | 0.0051 | 
15 | CCO[C@H]1C[C@@H](Oc2cc3nc(C4CCOCC4)cn3cc2C(=O)Nc2cccc(C(F)F)n2)C1 [Example 436, N-(6-(difluoromethyl)pyridin-2-yl)-7-((1s,3s)-3-ethoxycyclobutoxy)-2-(tetrahydro-2H-pyran-4-yl)imidazo[1,2-a]pyridine-6-carboxamide] | 0.0008 | 
16 | Cn1ccc(NC(=O)c2cn3cc(C45COC(C)(C4)C5)nc3cc2OC2CCC2)n1 [Example 437, 7-Cyclobutoxy-N-(1-methyl-1H-pyrazol-3-yl)-2-(1-methyl-2-oxabicyclo[2.1.1]hexan-4-yl)imidazo[1,2-a]pyridine-6-carboxamide] | 0.0017 | 
17 | CC12CC(c3cn4cc(C(=O)Nc5cccn(C(F)F)c5=O)c(OC5CCC5(C)C)cc4n3)(CO1)C2 (stereo not shown) [Example 439, N-(1-(difluoromethyl)-2-oxo-1,2-dihydropyridin-3-yl)-7-(2,2-dimethylcyclobutoxy)-2-(1-methyl-2-oxabicyclo[2.1.1]hexan-4-yl)imidazo[1,2-a]pyridine-6-carboxamide] | 0.0028 | 
18 | Cn1ccc(NC(=O)c2cn3cc(C45COC(C)(C4)C5)nc3cc2OC2CC(C)(C)C2)n1 [Example 440, 7-(3,3-Dimethylcyclobutoxy)-N-(1-methyl-1H-pyrazol-3-yl)-2-(1-methyl-2-oxabicyclo[2.1.1]hexan-4-yl)imidazo[1,2-a]pyridine-6-carboxamide] | 0.0043 | 
19 | CC12CC(c3cn4cc(C(=O)Nc5cccn(C(F)F)c5=O)c(OC5CCC5)cc4n3)(CO1)C2 [Example 442, 7-Cyclobutoxy-N-(1-(difluoromethyl)-2-oxo-1,2-dihydropyridin-3-yl)-2-(1-methyl-2-oxabicyclo[2.1.1]hexan-4-yl)imidazo[1,2-a]pyridine-6-carboxamide] | 0.0002 | 
20 | CC1(C)CC(Oc2cc3nc(C45COC(C)(C4)C5)cn3cc2C(=O)Nc2cccn(C(F)F)c2=O)C1 [Example 445, N-(1-(difluoromethyl)-2-oxo-1,2-dihydropyridin-3-yl)-7-(3,3-dimethylcyclobutoxy)-2-(1-methyl-2-oxabicyclo[2.1.1]hexan-4-yl)imidazo[1,2-a]pyridine-6-carboxamide] | 0.0006 | 
21 | CC12CC(c3cn4cc(C(=O)Nc5cccn(C(F)F)c5=O)c(OC5CC(C(F)F)C5)cc4n3)(CO1)C2 (stereo not shown) [Example 450, N-(1-(difluoromethyl)-2-oxo-1,2-dihydropyridin-3-yl)-7-(3-(difluoromethyl)cyclobutoxy)-2-(1-methyl-2-oxabicyclo[2.1.1]hexan-4-yl)imidazo[1,2-a]pyridine-6-carboxamide] |  | 0.0003
22 | Cn1ccc(NC(=O)c2cn3cc(C45COC(C)(C4)C5)nc3cc2OC2CC(C(F)F)C2)n1 (stereo not shown) [Example 451, 7-(3-(Difluoromethyl)cyclobutoxy)-N-(1-methyl-1H-pyrazol-3-yl)-2-(1-methyl-2-oxabicyclo[2.1.1]hexan-4-yl)imidazo[1,2-a]pyridine-6-carboxamide] |  | 0.0065
